Experimental data reported in patent US20150366943A1, “MOBILIZATION OF HEMATOPOIETIC STEM CELLS FROM BONE MARROW TO BLOOD USING A COMBINATION OF A ROBO4 RECEPTOR ANTAGONIST AND A CXCR4 ANTAGONIST OR hrVEGF-165 AND A CXCR4 ANTAGONIST” (The Regents of the University of California, priority 2012, published 2015).

Legend:
[1] = tested on: BM cell (HSC, T cell) migration toward Sdf1; experiment: Modified Boyden (transwell) migration assay; format: cell-based, mice
Protocol: BM cells (lineage depleted by magnetic selection, when appropriate), were preincubated at 37° C. for one hour, then placed in the upper chamber of a transwell insert (5 μm pore size). Bottom and/or top wells contained Sdf1 (100 ng/ml) and/or Slit2, as indicated. Cells were allowed to migrate for 2 hrs at 37° C. before harvesting and analysis by flow cytometry.

[2] = tested on: hematopoietic stem cells (HSC) and progenitors in peripheral blood
Protocol: Briefly, mice were injected IP with 200 mg/kg of Cytoxan in HBSS (Sigma-Aldrich) on day −1, followed by 2 or 4 sequential daily sub-cutaneous injections of […] rhG-CSF (Humanzyme, Chicago, Ill.). Tissues were analyzed on day 2 or 4, as indicated (FIGS. 3A, 4A). A cohort from each group was injected IV with 5 mg/kg of AMD3100 1 hour prior to sacrifice. For AMD3100 alone, mice were treated with two serial AMD3100 (5 mg/kg) IV injections one hour apart. Peripheral blood, spleen, and bone marrow were isolated one hour later and processed for cell counts and flow cytometry analysis to determine the numbers and frequencies of each cell population.

[3] = tested on: HSC localization to the BM; settings: three hours post-injection
Protocol: BM cells were labeled with CFSE labeling dye (Invitrogen) for 5 minutes at ambient temperature, followed by antibody labeling and isolation of cKit^+/Lin^−/Sca1^+/CFSE^hi cells by two rounds of FACS. Sorted cells were split in two equal parts and incubated with or without AMD3100 ([…]) on ice for 30 minutes. Cells were washed, pelleted by centrifugation, and resuspended in HBSS at 400,000 cells/ml. Hosts, lethally irradiated 24 hours prior to transplantation, were injected IV with 40,000 cells in 100 μI. Three hours post-transplant, tissues were harvested from individual mice and analyzed for CFSE labeled cells by flow cytometry. Total cell numbers were counted using a Beckman Coulter Cell Counter.

[4] = tested on: hematopoietic stem cells (HSC) and progenitors in peripheral blood; settings: previous reports (Bonig 2009; Broxmeyer 2005); cited from earlier work
[5] = tested on: wt HSC; experiment: In vitro proliferation of HSC; format: cell-based, mice; settings: Slit2 4 ug/ml, FIG. 9E
Protocol: HSC and MPP were isolated and sorted from Robo4^−/− and wt mice as previously described. 90-200 cells were plated per well of either strain into a 96-well U-bottom tissue culture plate and cultured for up to 10 days in IMEM medium (Fisher) supplemented with 10% FBS, 25 ng/ml of IL-11, 25 ng/ml of GM-CSF, 25 ng/ml of SCF, 10 ng/ml IL-3 (Cytokines from Peprotech) and Primocin (Invivogen). On days 3, 5, 7, and 10 FITC-labeled spherobeads (BD Bioscience) were added and triplicate samples were analyzed using a FACSAria. Cell expansion rates were calculated based on the number of beads recovered per 10,000 beads added per well.

[6] = tested on: HL60 cells; experiment: HL60 cell migration toward fMLP; format: cell-based; settings: Slit2, FIG. 11C
Protocol: (A) Purified Sdf1 (100 ng/ml) with and without Slit2 (250 or 500 ng/ml) was placed in bottom wells and the migration of lineage-depleted BM cells after a 2-hour incubation period were quantitated by flow cytometry. […] (B) Slit2 had no effect on T cell migration by itself (black bars) or in combination with Sdf1 (purple bars) in vitro. Experiment performed as in A, except unfractionated BM cells were placed in top wells. (C) Slit2 attenuated HL60 cell migration toward fMLP. Data shown are representative of at least two (C) or three (A and B) independent experiments. Error bars represent SEM. *p<0.03.

| Molecule | cell migration toward Sdf1 after preincubation with AMD3100 ([1]; increasing amounts of AMD3100, FIG. 6A) | concentration giving complete inhibition of HSC migration toward Sdf1 ([1]; preincubation with AMD3100, FIG. 6A) | efficiency of AMD3100-induced HSC mobilization in Robo4−/− mice compared to wt mice ([2]; FIG. 4E) | progenitor cell numbers in the blood ([2]; one hour after two sequential AMD3100 injections, wt mice) | circulating HSC ([2]; one hour after two sequential AMD3100 injections, wt mice, FIG. 4D) | increase in PB HSC ([2]; wt mice, AMD3100 mobilization, FIG. 4D) | reduction in donor cells localizing to the BM ([3]; AMD3100 preincubation of wt cells, FIG. 6B) | BM localization of Robo4-deficient cells treated with AMD3100 ([3]; FIG. 6B) | donor cells in the blood stream ([3]; FIG. 6C) | localization to the spleen ([3]; FIG. 6D) | HSC numbers increase (long-term reconstitution capability of PB cells upon AMD3100 mobilization) [4] | in vitro proliferation rates of wt HSC [5] | migration of CD4+T cells toward Sdf1 ([1]; Slit2, FIG. 11B) | HSC migration toward Slit2 ([1]; data not shown) | cell migration toward Sdf1 with Slit2 added ([1]; lineage-depleted BM cells, Sdf1 100 ng/ml, Slit2 250 or 500 ng/ml, 2-hour incubation, FIG. 11A) | HL60 cell migration toward fMLP [6] |
| --- | --- | --- | --- | --- | --- | --- | --- | --- | --- | --- | --- | --- | --- | --- | --- | --- |
| c1cc(CN2CCCNCCNCCCNCC2)ccc1CN1CCCNCCNCCCNCC1 [AMD3100] | dose-dependent decrease | 25 µM | much greater | increased robustly | surprisingly few | ~1.5 fold | ~2 fold | further decrease in BM localization | reciprocal increase | no differences | 1.5-8 fold |  |  |  |  |  |
| Slit2: the Robo ligand Slit2, a large secreted protein (protein, UniProt O94813 31-1529, looked up) Slit homolog 2 protein: QCSCSGSTVDCHGLALRSVPRNIPRNTERLDLNGNNITRITKTDFAGLRHLRVLQLMENKISTIERGAFQDLKELERLRLNRNHLQLFPELLFLGTAKLYRLDLSENQIQAIPRKAFRGAVDIKNLQLDYNQISCIEDGAFRALRDLEVLTLNNNNITRLSVASFNHMPKLRTFRLHSNNLYCDCHLAWLSDWLRQRPRVGLYTQCMGPSHLRGHNVAEVQKREFVCSGHQSFMAPSCSVLHCPAACTCSNNIVDCRGKGLTEIPTNLPETITEIRLEQNTIKVIPPGAFSPYKKLRRIDLSNNQISELAPDAFQGLRSLNSLVLYGNKITELPKSLFEGLFSLQLLLLNANKINCLRVDAFQDLHNLNLLSLYDNKLQTIAKGTFSPLRAIQTMHLAQNPFICDCHLKWLADYLHTNPIETSGARCTSPRRLANKRIGQIKSKKFRCSAKEQYFIPGTEDYRSKLSGDCFADLACPEKCRCEGTTVDCSNQKLNKIPEHIPQYTAELRLNNNEFTVLEATGIFKKLPQLRKINFSNNKITDIEEGAFEGASGVNEILLTSNRLENVQHKMFKGLESLKTLMLRSNRITCVGNDSFIGLSSVRLLSLYDNQITTVAPGAFDTLHSLSTLNLLANPFNCNCYLAWLGEWLRKKRIVTGNPRCQKPYFLKEIPIQDVAIQDFTCDDGNDDNSCSPLSRCPTECTCLDTVVRCSNKGLKVLPKGIPRDVTELYLDGNQFTLVPKELSNYKHLTLIDLSNNRISTLSNQSFSNMTQLLTLILSYNRLRCIPPRTFDGLKSLRLLSLHGNDISVVPEGAFNDLSALSHLAIGANPLYCDCNMQWLSDWVKSEYKEPGIARCAGPGEMADKLLLTTPSKKFTCQGPVDVNILAKCNPCLSNPCKNDGTCNSDPVDFYRCTCPYGFKGQDCDVPIHACISNPCKHGGTCHLKEGEEDGFWCICADGFEGENCEVNVDDCEDNDCENNSTCVDGINNYTCLCPPEYTGELCEEKLDFCAQDLNPCQHDSKCILTPKGFKCDCTPGYVGEHCDIDFDDCQDNKCKNGAHCTDAVNGYTCICPEGYSGLFCEFSPPMVLPRTSPCDNFDCQNGAQCIVRINEPICQCLPGYQGEKCEKLVSVNFINKESYLQIPSAKVRPQTNITLQIATDEDSGILLYKGDKDHIAVELYRGRVRASYDTGSHPASAIYSVETINDGNFHIVELLALDQSLSLSVDGGNPKIITNLSKQSTLNFDSPLYVGGMPGKSNVASLRQAPGQNGTSFHGCIRNLYINSELQDFQKVPMQTGILPGCEPCHKKVCAHGTCQPSSQAGFTCECQEGWMGPLCDQRTNDPCLGNKCVHGTCLPINAFSYSCKCLEGHGGVLCDEEEDLFNPCQAIKCKHGKCRLSGLGQPYCECSSGYTGDSCDREISCRGERIRDYYQKQQGYAACQTTKKVSRLECRGGCAGGQCCGPLRSKRRKYSFECTDGSSFVDEVEKVVKCGCTRCVS |  |  |  |  |  |  |  |  |  |  |  | did not affect | not affected | did not detect | No significant differences | inhibition |
